Experimental data reported in patent US12729225B2, “Non-canonical SWI/SNF complex and uses thereof” (Dana-Farber Cancer Institute, Inc., priority 2018, dated 2026).
Values joined by “and” are separate entries in the source; they are usually repeats but may differ in a detail not shown here. Identical values can stand only once. “Also recorded” adds a separate entry of the source.

Assays:
[1] = test system: ESX epithelioid sarcoma (SMARCB1-intact) cells; assay: Proliferation curves (cell counts) in ESX cells; type: cell-based, human; settings: dBRD9 250 nM vs DMSO
Experimental: (§1) HEK-293T, G401, TTC1240, ESX, IMR-90, BJ Fibroblast, CRL7250, and NCIH-1437 cells were grown in DMEM (Gibco®) supplemented with 10% FBS, 1% GlutaMAX™ (Gibco®), and 1% penicillin-streptomycin (Gibco®). ES-2 cells were grown in McCoy's 5A (Gibco®) supplemented with 10% FBS, 1% GlutaMA™ (Gibco®), and 1% penicillin-streptomycin (Gibco®). EoL-1 and MOLM-13 were grown in RPMI (Gibco) supplemented with 10% FBS, 1% GlutaMAX™ (Gibco®), and 1% penicillin-streptomycin (Gibco®). RD were cultured in DMEM (Gibco®) supplemented with 10% FBS. HCT116 were grown in McCoy's 5A (Gibco®) supplemented with 10% FBS. Calu-6 were grown in EMEM (ATCC® 30-2003) supplemented with 10% FBS. SYO-1 was grown in DMEM without sodium pyruvate (Gibco®) supplemented with 10% FBS, 1% GlutaMAX™ (Gibco®), and 1% penicillin-streptomycin (Gibco®).
(§2) 25,000-40,000 cells were plated per well of 12 well plates, or 50,000-60,000 per 10 cm plate, depending on cell line. Cell counts were performed in biological triplicate using a Vi-CELL™ XR Cell Counter (Beckman Coulter) on days indicated.

[2] = test system: SMARCA4; assay: ChIP-seq SMARCA4 occupancy in MOLM-13 cells; type: cell-based, human; settings: MOLM13 (BAF-intact), dBRD9
Experimental: (§3) Cells were fixed in 1% formaldehyde (Sigma Aldrich, F8775) for 10 min at 37° C. and quenched with 125 mM glycine for 5 min at 37° C. Cells were subsequently washed with cold PBS and stored at −80° C. until use. 10M cells per ChTP were used for EoL-1, MOLM-13, and Jurkat cell lines, and 5M cells per ChIP were used for SYO-1 and TTC1240 cell lines. Nuclei were extracted and chromatin was sonicated using the adaptive focused acoustics technology with a Covaris sonicator. Sonicated chromatin was used in immunoprecipitation reactions with indicated antibodies (Table 5) overnight followed by capture using Protein G Dynabeads (Thermo Fisher). For ChIP-seq using spike-in chromatin, 15 ng of spike-in Drosophila chromatin (Active Motif, cat #530830) was added to each sample with 2 μg of spike-in antibody (Active Motif, cat #61686). […]
(§4) For alignment of ChIP-seq data, Bowtie2, version 2.1.0 (Langmead & Salzberg (2012) Nat. Methods 9:357-359) was used to map reads to the hg19 human reference genome, using the parameter −k l.
MACS2 (Zhang et al. (2008) Genome Biol. 9:R137) version 2.1.0 was used to call peaks against input with a cutoff of q=0.001. […] For TTC1240 SMARCA4 tracks shown, the bedGraph file values were multiplied by the spike-in normalization ratios calculated as described above.

[3] = test system: CRL7250 human fibroblast cells; assay: RNA-seq of SS18-SSX-mediated gene activation in CRL7250 fibroblasts; type: cell-based; settings: CRL7250 fibroblasts expressing V5-SS18-SSX1, with dBRD9
Experimental: (§5) RNA was collected from 2 million cells per condition, in biological duplicate, using the RNeasy® Mini Kit (QIAGEN) according to manufacturer's protocol.
(§6) Library preparation and sequencing of ChIP DNA and RNA was performed by the Molecular Biology Core Facilities at the Dana-Farber Cancer Institute (75 bp single end on Illuminia Nextseq 500).
(§7) RNA-seq data reads were mapped using default parameters to hg19 using STAR (Dobin, et al. (2013) Bioinformatics 29:15-21) version 2.5.2a.
(§8) RPKM values were calculated using GFOLD version 1.1.4 (Feng et al. (2012) Bioinformatics 28:2782-2788). Unless otherwise noted, log 2 fold change and Bonferri-corrected p values were generated using DESEQ2 v1.16.1, with reads mapped using RSUBREAD (Liao et al. (2013) Nucleic Acids Res. 41:e108) v1.26.1. […] All RNA-seq experiments were performed in biological replicate. Quality control metrics are available in Table 7.
(§9) The input for Gene Set Enrichment Analysis (GSEA) (Subramanian et al. (2005) Proc. Nat. Acad. Sci. U.S.A 102:15545-15550) was created by calculating the log 2 fold change between the mean RPKM of the replicates in each condition+1. […] GSEA Preranked was run over these files with default settings.

[4] = test system: G401 MRT cells; assay: Proliferation curves (cell counts) in G401 cells; type: cell-based, human; settings: for Proliferation curve data for FIG. 5K (G401): three replicates
Experimental: as §1, §2

[5] = test system: SYO-1 synovial sarcoma cells; assay: Proliferation curves (cell counts, Vi-CELL XR) in SYO-1 cells; type: cell-based, human; settings: for cell count: three replicates
Experimental: as §1
ShRNA or gene delivery vectors, psPAX2, and pMD2.g were transfected into […] cells at a ratio of 4:3:1 using PEI (Polysciences, Inc.). Media was filtered through 0.4 micron filters 72 h post transfection and lentiviral particles were concentrated at 20,000 rpm for 2.5 h at 4° C. Lentiviral particles were resuspended in 200 μl PBS and cells were transduced using 1:1000 polybrene (Santa Cruz Biotechnology, cat. sc-134220). Two days post-infection, cells were selected with 2 μg/mL puromycin or 10 μg/mL blasticidin.
as §2

[6] = test system: SYO-1 synovial sarcoma cells; assay: RNA-seq gene expression profiling in SYO-1 cells; type: cell-based, human; settings: SYO-1, dBRD9 (6 day)
Experimental: as §5, §6, §7, §8, §9

[7] = test system: TTC1240 malignant rhabdoid tumor cells; assay: RNA-seq gene expression in TTC1240 cells; type: cell-based, human; settings: TTC1240, 7 days of 250 nM dBRD9
Experimental: as §5, §6, §7, §8
Genes associated with MRT superenhancers were downloaded from Chun et al. (Chun et al. (2016) Cancer Cell 29:394-406). Differential expression files of genes between MRT and normal tissues were downloaded from Chun et al., genes that were overexpressed in MRT with Bonferroni-adjusted p-value<0.01 were considered overexpressed in MRT.

[8] = test system: TTC1240 malignant rhabdoid tumor cells; assay: Proliferation curves (cell counts) in TTC1240 cells; type: cell-based, human; settings: for Proliferation curve data for FIG. 6H (TTC1240): three replicates
Experimental: as §1, §2

[9] = test system: MOLM-13 cells; assay: RNA-seq gene expression in MOLM-13 cells; type: cell-based, human; settings: MOLM-13 (BAF-intact), 6 days of dBRD9
Experimental: as §5, §6, §7, §8

[10] = test system: SMARCA4; assay: ChIP-seq SMARCA4 occupancy in TTC1240 cells (spike-in normalized, DiffBind); type: cell-based, human; settings: TTC1240, dBRD9 250 nM vs DMSO
Experimental: as §3, with “Fisher).” for “Fisher). For ChIP-seq using spike-in chromatin, 15 ng of spike-in Drosophila chromatin (Active Motif, cat #530830) was added to each sample with 2 μg of spike-in antibody (Active Motif, cat #61686).”
as §4
For spike-in normalization, Drosophila DNA was aligned to the dm3 genome using Bowtie2 version 2.1.0 with the parameter −k l. Duplicated reads were removed using samtools rmdup with the −b option. (SAMtools v1.3.1) As per manufacturer instructions, normalization ratios were calculated using the ratio of the total number of non-redundant mapped reads in each sample in comparison to the sample with the fewest non-redundant mapped reads. […]

Question: Which results are given for `COc1cc(-c2cn(C)c(=O)c3cnccc23)cc(OC)c1CN(C)CC(=O)NCCOCCOCCNc1cccc2c1C(=O)N(C1CCC(=O)NC1=O)C2=O` (centres unmarked) [dBRD9, 2-((2,6-dimethoxy-4-(2-methyl-1-oxo-1,2-dihydro-2,7-naphthyridin-4-yl)benzyl)(methyl)amino)-N-(2-(2-(2-((2-(2,6-dioxopiperidin-3-yl)-1,3-dioxoisoindolin-4-yl)amino)ethoxy)ethoxy)ethyl) acetamide]?
Answer: reduced proliferation upon dBRD9 treatment [1]: did not; loss in SMARCA4 occupancy (ChIP-seq) [2]: did not exhibit similar loss; SS18-SSX-mediated gene activation [3]: did not attenuate; Proliferation curve data for FIG. 5K (G401) ([4]; Day 1, first block): 0.04568 and 0.02188 and 0.02252; Proliferation curve data for FIG. 5K (G401) ([4]; Day 1, second block): 0.1114 and 0.1126 and 0.1094; Proliferation curve data for FIG. 5K (G401) ([4]; Day 3, first block): 0.1287 (2×) and 0.1558; Proliferation curve data for FIG. 5K (G401) ([4]; Day 3, second block): 0.48 and 0.5096 and 0.442; Proliferation curve data for FIG. 5K (G401) ([4]; Day 5, first block): 0.453 and 0.5533 and 0.4292; Proliferation curve data for FIG. 5K (G401) ([4]; Day 5, second block): 1.005 and 1.058 and 0.9696; Proliferation curve data for FIG. 5K (G401) ([4]; Day 7, first block): 0.7669 and 0.9773 and 0.8281; Proliferation curve data for FIG. 5K (G401) ([4]; Day 7, second block): 1.468 and 1.621 and 1.556; proliferation upon dBRD9 treatment ([4]; G401 (SMARCB1-deficient MRT), dBRD9 250 nM vs DMSO): reduced proliferation; cell count ([5]; Day 0, second block): 0.05; cell count ([5]; Day 1, first block): 0.03089 and 0.03603 and 0.03282; cell count ([5]; Day 4, first block): 0.1506 and 0.1319 and 0.1377; cell count ([5]; Day 4, second block): 0.171 and 0.18 and 0.216; cell count ([5]; Day 6, first block): 0.2722 and 0.3153 and 0.2555; cell count ([5]; Day 7, second block): 0.36 (2×) and 0.42; cell count ([5]; Day 8, first block): 0.5521 and 0.5701 and 0.5147; cell count ([5]; Day 10, second block): 1.17 and 1.38 and 1.14; cell count ([5]; Day 13, second block): 2.3 and 2.21 and 2.13; cell proliferation upon dBRD9 treatment ([5]; SYO-1, dBRD9 500 nM (FIG. 6F) vs DMSO): attenuation of cell proliferation; also recorded: proliferative attenuation; expression of genes closest to fusion-dependent sites [6]: did not change; expression of JUND, VGF, ID3, HOXC9, CREB3L1 [7]: significantly downregulated; Proliferation curve data for FIG. 6H (TTC1240) ([8]; Day 1, first block): 0.01352 and 0.01738 and 0.01416; Proliferation curve data for FIG. 6H (TTC1240) ([8]; Day 1, second block): 0.05469 (2×) and 0.03282; Proliferation curve data for FIG. 6H (TTC1240) ([8]; Day 3, first block): 0.03024 and 0.04118 and 0.0296; Proliferation curve data for FIG. 6H (TTC1240) ([8]; Day 3, second block): 0.2709 and 0.2793 and 0.2619; Proliferation curve data for FIG. 6H (TTC1240) ([8]; Day 5, first block): 0.05791 and 0.06311 and 0.0534; Proliferation curve data for FIG. 6H (TTC1240) ([8]; Day 5, second block): 0.9207 and 0.9419 and 0.9374; Proliferation curve data for FIG. 6H (TTC1240) ([8]; Day 7, first block): 0.1853 and 0.2336 and 0.1628; Proliferation curve data for FIG. 6H (TTC1240) ([8]; Day 7, second block): 2.184 and 2.334 and 2.133; proliferation upon dBRD9 treatment ([8]; TTC1240 (SMARCB1-deficient MRT), dBRD9 250 nM vs DMSO): reduced proliferation; preferential downregulation of genes enriched for dependencies (CERES) [9]: did not result in preferential downregulation; SMARCA4 occupancy (ChIP-seq) [10]: significant decrease
